Reference: ChEMBL document CHEMBL4800724 (2021)
The source made the active and inactive calls. The rule behind the calls is not given here.

Tests used:
[1] = target: T1, Sigma non-opioid intracellular receptor 1 (Homo sapiens, UniProt Q99720); assay: GPCRScan assay: inhibition of Sigma 1; set-up: radioligand conc. used [nm] 4.0 – 5.0, parental cells HEKT
[2] = target: Mitogen-activated protein kinase 14 (Homo sapiens, UniProt Q16539); assay: NanoBRET (SGC Frankfurt) (MAPK14)
[3] = target: Ubiquitin carboxyl-terminal hydrolase isozyme L1 (Homo sapiens) (UniProt P09936); assay: UCHL1 activity based protein profiling assay (ABPP)
[4] = target: 5-hydroxytryptamine receptor 1A (Homo sapiens) (UniProt P08908); conditions: Compound concentration 10.0 uM
[5] = target: 5-hydroxytryptamine receptor 1B (Homo sapiens) (UniProt P28222); conditions: Compound concentration 10.0 uM
[6] = target: 5-hydroxytryptamine receptor 1D (Homo sapiens) (UniProt P28221); conditions: Compound concentration 10.0 uM
Sequence of 5-hydroxytryptamine receptor 1D (Homo sapiens) (P28221 whole entry): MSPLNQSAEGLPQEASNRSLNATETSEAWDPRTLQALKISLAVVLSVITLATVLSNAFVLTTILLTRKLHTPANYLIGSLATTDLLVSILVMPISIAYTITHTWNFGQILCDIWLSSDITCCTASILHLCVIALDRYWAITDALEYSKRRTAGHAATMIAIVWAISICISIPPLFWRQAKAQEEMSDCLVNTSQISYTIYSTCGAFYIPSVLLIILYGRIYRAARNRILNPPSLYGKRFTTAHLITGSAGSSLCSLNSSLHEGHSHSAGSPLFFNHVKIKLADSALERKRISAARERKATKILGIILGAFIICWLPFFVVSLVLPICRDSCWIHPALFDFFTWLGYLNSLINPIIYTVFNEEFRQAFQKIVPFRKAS

[7] = target: 5-hydroxytryptamine receptor 1E (Homo sapiens) (UniProt P28566); conditions: Compound concentration 10.0 uM
[8] = target: 5-hydroxytryptamine receptor 2A (Homo sapiens) (UniProt P28223); conditions: Compound concentration 10.0 uM
[9] = target: 5-hydroxytryptamine receptor 2B (Homo sapiens) (UniProt P41595); conditions: Compound concentration 10.0 uM
[10] = target: 5-hydroxytryptamine receptor 2C (Homo sapiens) (UniProt P28335); conditions: Compound concentration 10.0 uM
Sequence of 5-hydroxytryptamine receptor 2C (Homo sapiens) (P28335 whole entry): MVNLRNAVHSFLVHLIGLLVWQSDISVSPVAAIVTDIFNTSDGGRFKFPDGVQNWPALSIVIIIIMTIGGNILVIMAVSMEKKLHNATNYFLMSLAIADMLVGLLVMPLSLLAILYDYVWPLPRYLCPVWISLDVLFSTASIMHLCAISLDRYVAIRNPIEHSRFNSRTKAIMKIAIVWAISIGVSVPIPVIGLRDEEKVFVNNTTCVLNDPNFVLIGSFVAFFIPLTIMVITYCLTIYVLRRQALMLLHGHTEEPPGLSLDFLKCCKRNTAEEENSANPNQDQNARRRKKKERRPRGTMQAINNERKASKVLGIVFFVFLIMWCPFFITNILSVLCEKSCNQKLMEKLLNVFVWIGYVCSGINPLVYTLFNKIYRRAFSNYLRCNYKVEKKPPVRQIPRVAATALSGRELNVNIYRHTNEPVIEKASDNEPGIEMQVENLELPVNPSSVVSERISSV

[11] = target: 5-hydroxytryptamine receptor 3A (Homo sapiens) (UniProt P46098); conditions: Compound concentration 10.0 uM
Sequence of 5-hydroxytryptamine receptor 3A (Homo sapiens) (P46098 whole entry): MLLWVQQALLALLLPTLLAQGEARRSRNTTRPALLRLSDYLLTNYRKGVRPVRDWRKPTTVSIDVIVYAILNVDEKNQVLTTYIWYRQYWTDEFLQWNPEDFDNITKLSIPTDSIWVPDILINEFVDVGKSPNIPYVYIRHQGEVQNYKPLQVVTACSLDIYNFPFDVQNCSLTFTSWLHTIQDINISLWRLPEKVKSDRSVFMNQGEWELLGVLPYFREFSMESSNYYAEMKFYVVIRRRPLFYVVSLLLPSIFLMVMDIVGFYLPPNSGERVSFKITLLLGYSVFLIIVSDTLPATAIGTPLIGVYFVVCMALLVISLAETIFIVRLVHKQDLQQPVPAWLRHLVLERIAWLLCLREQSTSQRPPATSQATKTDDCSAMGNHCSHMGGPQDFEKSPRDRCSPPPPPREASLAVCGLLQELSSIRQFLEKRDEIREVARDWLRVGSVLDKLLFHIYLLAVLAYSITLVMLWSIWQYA

[12] = target: 5-hydroxytryptamine receptor 5A (Homo sapiens) (UniProt P47898); conditions: Compound concentration 10.0 uM
[13] = target: 5-hydroxytryptamine receptor 6 (Homo sapiens) (UniProt P50406); conditions: Compound concentration 10.0 uM
[14] = target: 5-hydroxytryptamine receptor 7 (Homo sapiens) (UniProt P34969); conditions: Compound concentration 10.0 uM
[15] = target: D(2) dopamine receptor (Homo sapiens) (UniProt P14416); conditions: Compound concentration 10.0 uM
Sequence of D(2) dopamine receptor (Homo sapiens) (P14416 whole entry): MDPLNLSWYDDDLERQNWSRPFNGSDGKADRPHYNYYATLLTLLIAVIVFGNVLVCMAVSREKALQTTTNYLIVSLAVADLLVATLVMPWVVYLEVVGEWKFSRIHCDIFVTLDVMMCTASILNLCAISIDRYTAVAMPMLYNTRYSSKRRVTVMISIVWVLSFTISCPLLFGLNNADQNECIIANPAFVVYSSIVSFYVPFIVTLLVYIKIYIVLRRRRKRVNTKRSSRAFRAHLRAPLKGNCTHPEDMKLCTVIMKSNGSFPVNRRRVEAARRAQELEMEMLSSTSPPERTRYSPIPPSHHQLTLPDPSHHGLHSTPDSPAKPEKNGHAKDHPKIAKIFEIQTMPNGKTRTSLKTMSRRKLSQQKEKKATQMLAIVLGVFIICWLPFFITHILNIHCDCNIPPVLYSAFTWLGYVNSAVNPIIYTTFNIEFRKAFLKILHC

[16] = target: D(3) dopamine receptor (Homo sapiens) (UniProt P35462); conditions: Compound concentration 10.0 uM
[17] = target: D(4) dopamine receptor (Homo sapiens) (UniProt P21917); conditions: Compound concentration 10.0 uM
[18] = target: D(1B) dopamine receptor (Homo sapiens) (UniProt P21918); conditions: Compound concentration 10.0 uM
[19] = target: Sodium-dependent serotonin transporter (Homo sapiens) (UniProt P31645); conditions: Compound concentration 10.0 uM
[20] = target: Sodium-dependent noradrenaline transporter (Homo sapiens) (UniProt P23975); conditions: Compound concentration 10.0 uM
Sequence of Sodium-dependent noradrenaline transporter (Homo sapiens) (P23975 whole entry): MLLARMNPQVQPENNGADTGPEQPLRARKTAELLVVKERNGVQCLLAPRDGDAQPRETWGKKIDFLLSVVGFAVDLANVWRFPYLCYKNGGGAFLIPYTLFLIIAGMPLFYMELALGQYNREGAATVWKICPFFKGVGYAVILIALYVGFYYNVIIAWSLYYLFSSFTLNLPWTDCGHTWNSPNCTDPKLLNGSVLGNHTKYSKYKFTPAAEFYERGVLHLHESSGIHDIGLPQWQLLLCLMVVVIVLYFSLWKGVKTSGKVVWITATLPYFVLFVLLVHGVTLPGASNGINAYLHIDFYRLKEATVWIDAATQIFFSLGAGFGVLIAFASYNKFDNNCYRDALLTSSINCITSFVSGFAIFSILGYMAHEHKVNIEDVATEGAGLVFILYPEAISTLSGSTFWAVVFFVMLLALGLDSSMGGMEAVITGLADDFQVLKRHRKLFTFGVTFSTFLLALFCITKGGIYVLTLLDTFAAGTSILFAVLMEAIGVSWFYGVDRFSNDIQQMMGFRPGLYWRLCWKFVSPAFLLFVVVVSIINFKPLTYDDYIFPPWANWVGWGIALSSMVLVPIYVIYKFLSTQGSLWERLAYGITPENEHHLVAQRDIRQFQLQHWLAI

[21] = target: T2, Sodium-dependent dopamine transporter (Homo sapiens, UniProt Q01959); conditions: Compound concentration 10.0 uM
T2 sequence (Q01959 whole entry): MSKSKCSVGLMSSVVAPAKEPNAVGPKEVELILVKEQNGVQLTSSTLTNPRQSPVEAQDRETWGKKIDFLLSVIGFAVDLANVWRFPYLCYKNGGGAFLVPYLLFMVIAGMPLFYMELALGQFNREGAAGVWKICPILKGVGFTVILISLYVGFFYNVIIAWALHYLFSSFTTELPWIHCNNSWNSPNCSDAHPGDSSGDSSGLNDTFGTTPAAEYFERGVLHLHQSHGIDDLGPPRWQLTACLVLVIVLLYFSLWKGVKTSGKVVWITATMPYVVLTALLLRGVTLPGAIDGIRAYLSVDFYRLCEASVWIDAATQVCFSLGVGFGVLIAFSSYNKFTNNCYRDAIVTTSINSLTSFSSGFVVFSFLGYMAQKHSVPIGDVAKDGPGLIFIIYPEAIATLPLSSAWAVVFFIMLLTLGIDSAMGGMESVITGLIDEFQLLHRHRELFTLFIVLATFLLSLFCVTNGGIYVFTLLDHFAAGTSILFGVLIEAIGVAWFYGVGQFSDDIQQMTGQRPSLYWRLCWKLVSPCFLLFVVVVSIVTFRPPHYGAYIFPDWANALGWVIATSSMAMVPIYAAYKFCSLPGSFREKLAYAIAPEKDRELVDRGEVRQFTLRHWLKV

[22] = target: Mu-type opioid receptor (Homo sapiens) (UniProt P35372); conditions: Compound concentration 10.0 uM
Sequence of Mu-type opioid receptor (Homo sapiens) (P35372 whole entry): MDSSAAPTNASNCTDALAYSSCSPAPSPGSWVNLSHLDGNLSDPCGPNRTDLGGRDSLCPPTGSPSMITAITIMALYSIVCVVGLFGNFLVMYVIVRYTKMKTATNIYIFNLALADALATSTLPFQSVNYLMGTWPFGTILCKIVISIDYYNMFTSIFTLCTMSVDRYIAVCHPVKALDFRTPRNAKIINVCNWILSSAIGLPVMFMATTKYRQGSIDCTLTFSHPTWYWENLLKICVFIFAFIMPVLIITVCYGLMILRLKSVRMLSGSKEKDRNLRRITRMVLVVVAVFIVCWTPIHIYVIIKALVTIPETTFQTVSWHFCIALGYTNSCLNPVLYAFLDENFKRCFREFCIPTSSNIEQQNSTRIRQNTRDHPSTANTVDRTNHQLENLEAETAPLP

[23] = target: Delta-type opioid receptor (Homo sapiens) (UniProt P41143); conditions: Compound concentration 10.0 uM
[24] = target: Kappa-type opioid receptor (Homo sapiens) (UniProt P41145); conditions: Compound concentration 10.0 uM
[25] = target: T3, GABA-A receptor; anion channel (Rattus norvegicus) (UniProt O09028+P15431+P18506+P18508+P19969+P20236+P23574+P23576+P28471+P28473+P30191+P62813+P63079+P63138+Q91ZM7+Q9ES14); conditions: Compound concentration 10.0 uM
[26] = target: Histamine H1 receptor (Homo sapiens) (UniProt P35367); conditions: Compound concentration 10.0 uM
[27] = target: Histamine H2 receptor (Homo sapiens) (UniProt P25021); conditions: Compound concentration 10.0 uM
Sequence of Histamine H2 receptor (Homo sapiens) (P25021 whole entry): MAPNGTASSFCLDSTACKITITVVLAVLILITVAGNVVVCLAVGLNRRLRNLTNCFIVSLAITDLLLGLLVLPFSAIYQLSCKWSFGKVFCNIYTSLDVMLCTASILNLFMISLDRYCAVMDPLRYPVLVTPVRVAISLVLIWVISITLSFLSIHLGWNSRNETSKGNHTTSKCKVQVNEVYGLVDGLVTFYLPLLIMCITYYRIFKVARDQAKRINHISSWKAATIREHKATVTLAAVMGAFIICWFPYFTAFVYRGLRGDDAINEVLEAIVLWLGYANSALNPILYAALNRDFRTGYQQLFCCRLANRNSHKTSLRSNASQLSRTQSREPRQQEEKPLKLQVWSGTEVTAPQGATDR

[28] = target: Histamine H3 receptor (Homo sapiens) (UniProt Q9Y5N1); conditions: Compound concentration 10.0 uM
Sequence of Histamine H3 receptor (Homo sapiens) (Q9Y5N1 whole entry): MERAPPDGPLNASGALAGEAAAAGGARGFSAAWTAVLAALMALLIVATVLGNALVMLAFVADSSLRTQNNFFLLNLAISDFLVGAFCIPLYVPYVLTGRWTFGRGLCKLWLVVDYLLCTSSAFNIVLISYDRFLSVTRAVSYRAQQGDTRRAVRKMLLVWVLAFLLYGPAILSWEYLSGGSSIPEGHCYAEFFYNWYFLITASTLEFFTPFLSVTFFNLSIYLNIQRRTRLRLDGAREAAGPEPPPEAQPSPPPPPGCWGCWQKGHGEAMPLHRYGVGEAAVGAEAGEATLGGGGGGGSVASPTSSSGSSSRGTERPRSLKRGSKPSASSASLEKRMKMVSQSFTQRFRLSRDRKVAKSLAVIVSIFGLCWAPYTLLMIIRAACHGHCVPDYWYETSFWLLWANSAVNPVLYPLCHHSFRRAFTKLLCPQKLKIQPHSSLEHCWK

[29] = target: Histamine H4 receptor (Homo sapiens) (UniProt Q9H3N8); conditions: Compound concentration 10.0 uM
[30] = target: Alpha-1A adrenergic receptor (Homo sapiens) (UniProt P35348); conditions: Compound concentration 10.0 uM
[31] = target: Alpha-2B adrenergic receptor (Homo sapiens) (UniProt P18089); conditions: Compound concentration 10.0 uM
[32] = target: Alpha-2C adrenergic receptor (Homo sapiens) (UniProt P18825); conditions: Compound concentration 10.0 uM
[33] = target: Beta-1 adrenergic receptor (Homo sapiens) (UniProt P08588); conditions: Compound concentration 10.0 uM
[34] = target: Beta-2 adrenergic receptor (Homo sapiens) (UniProt P07550); conditions: Compound concentration 10.0 uM
[35] = target: Muscarinic acetylcholine receptor M1 (Homo sapiens) (UniProt P11229); conditions: Compound concentration 10.0 uM
[36] = target: Muscarinic acetylcholine receptor M2 (Homo sapiens) (UniProt P08172); conditions: Compound concentration 10.0 uM
[37] = target: Muscarinic acetylcholine receptor M3 (Homo sapiens) (UniProt P20309); conditions: Compound concentration 10.0 uM
[38] = target: Muscarinic acetylcholine receptor M4 (Homo sapiens) (UniProt P08173); conditions: Compound concentration 10.0 uM
Sequence of Muscarinic acetylcholine receptor M4 (Homo sapiens) (P08173 whole entry): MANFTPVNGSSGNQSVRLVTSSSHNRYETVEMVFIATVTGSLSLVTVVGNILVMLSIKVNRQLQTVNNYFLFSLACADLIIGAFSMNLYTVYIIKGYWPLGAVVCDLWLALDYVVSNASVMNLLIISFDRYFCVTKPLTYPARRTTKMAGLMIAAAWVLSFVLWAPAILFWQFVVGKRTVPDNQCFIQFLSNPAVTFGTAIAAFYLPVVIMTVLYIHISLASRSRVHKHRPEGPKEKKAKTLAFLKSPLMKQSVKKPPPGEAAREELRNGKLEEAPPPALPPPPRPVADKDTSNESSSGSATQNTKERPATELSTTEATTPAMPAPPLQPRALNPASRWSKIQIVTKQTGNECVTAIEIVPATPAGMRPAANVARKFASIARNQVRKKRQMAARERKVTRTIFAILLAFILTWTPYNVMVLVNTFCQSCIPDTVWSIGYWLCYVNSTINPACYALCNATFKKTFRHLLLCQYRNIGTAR

[39] = target: Beta-3 adrenergic receptor (Homo sapiens) (UniProt P13945); conditions: Compound concentration 10.0 uM
[40] = target: T3, GABA-A receptor; anion channel (Rattus norvegicus); conditions: Compound concentration 10.0 uM; remark: listed apart in the source
Rattus norvegicus = species: Rattus norvegicus; conditions: Compound concentration 10.0 uM
[41] = target: Alpha-1D adrenergic receptor (Homo sapiens) (UniProt P25100); conditions: Compound concentration 10.0 uM
[42] = target: Sigma intracellular receptor 2 (Homo sapiens) (UniProt Q5BJF2); conditions: Compound concentration 10.0 uM
[43] = target: T1, Sigma non-opioid intracellular receptor 1; conditions: Compound concentration 10.0 uM
[44] = target: T2, Sodium-dependent dopamine transporter; assay: GPCRScan assay: inhibition of DAT; set-up: radioligand conc. used [nm] 3.6 – 16.0, parental cells stable HEK
[45] = target: Alpha-2A adrenergic receptor (Homo sapiens, UniProt P08913); assay: GPCRScan assay: inhibition of Alpha2A; set-up: radioligand conc. used [nm] 1.0 – 3.0, parental cells stable MDCK
[46] = target: Ubiquitin carboxyl-terminal hydrolase isozyme L1 (Homo sapiens, UniProt P09936); assay: UCHL1 inhibition assay with Ub-Rho-morpholine as substrate
[47] = target: D(1A) dopamine receptor (Homo sapiens) (UniProt P21728); conditions: Compound concentration 10.0 uM
[48] = target: Alpha-1B adrenergic receptor (Homo sapiens) (UniProt P35368); conditions: Compound concentration 10.0 uM
[49] = target: Alpha-2A adrenergic receptor (Homo sapiens) (UniProt P08913); conditions: Compound concentration 10.0 uM
[50] = target: Muscarinic acetylcholine receptor M5 (Homo sapiens) (UniProt P08912); conditions: Compound concentration 10.0 uM

T1 sequence (Q99720 whole entry): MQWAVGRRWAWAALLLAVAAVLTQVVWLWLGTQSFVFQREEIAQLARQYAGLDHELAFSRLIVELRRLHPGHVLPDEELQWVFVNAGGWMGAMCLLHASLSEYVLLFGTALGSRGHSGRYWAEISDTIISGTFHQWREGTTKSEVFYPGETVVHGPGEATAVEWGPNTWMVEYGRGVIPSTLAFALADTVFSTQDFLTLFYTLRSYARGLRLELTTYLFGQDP

Compound: N#CN1CC[C@H](C(=O)Nc2nc3c(s2)CN(C(=O)CN=[N+]=[N-])CC3)C1 [8RK64]
- Ki ([1]; read-out: Ki): 3.43 µM
- Ki ([1]; read-out: pKi (converted)): 3.39 µM
- IC50 [2]: 0.32 µM (active)
- Full inhibition [3]: 3 µM
- inhibition [4]: 7.61%
- inhibition [5]: 1.57%
- inhibition [6]: -0.37%
- inhibition [7]: 2.35%
- inhibition [8]: 30%
- inhibition [9]: 5.22%
- inhibition [10]: 18.2%
- inhibition [11]: 2.31%
- inhibition [12]: 11.8%
- inhibition [13]: 9.94%
- inhibition [14]: -0.16%
- inhibition [15]: 0.55%
- inhibition [16]: -2.14%
- inhibition [17]: 4.26%
- inhibition [18]: 7.55%
- inhibition [19]: 2.49%
- inhibition [20]: 2.61%
- inhibition [21]: -2.33%
- inhibition [22]: 12.6%
- inhibition [23]: 8.43%
- inhibition [24]: 0.19%
- inhibition [25]: -1.06%
- inhibition [26]: 7.45%
- inhibition [27]: 0.58%
- inhibition [28]: -5.98%
- inhibition [29]: 5.77%
- inhibition [30]: 11.2%
- inhibition [31]: -1.02%
- inhibition [32]: 14.7%
- inhibition [33]: -7.19%
- inhibition [34]: -0.7%
- inhibition [35]: 7.58%
- inhibition [36]: -0.45%
- inhibition [37]: -1.04%
- inhibition [38]: 4.84%
- inhibition [39]: -3.31%
- inhibition [40]: -2.35%
- inhibition (Rattus norvegicus): 21.9%
- inhibition [41]: 12.2%
- inhibition [42]: -1.19%
- inhibition [43]: 69%

Compound: N#CN1CC[C@@H](C(=O)Nc2nc3c(s2)CN(C(=O)CN=[N+]=[N-])CC3)C1 [JYQ88]
- Ki [44]: > 10 µM
- pKi [44]: < 5
- Ki [45]: > 10 µM
- pKi [45]: < 5
- IC50 [46]: 12.9 µM (not active)
- inhibition [4]: 12.1%
- inhibition [5]: 6.13%
- inhibition [6]: 20.9%
- inhibition [7]: 6.5%
- inhibition [8]: 3.66%
- inhibition [9]: 5.55%
- inhibition [10]: 6.22%
- inhibition [11]: 0.95%
- inhibition [12]: 9.64%
- inhibition [13]: 8.14%
- inhibition [14]: -1.05%
- inhibition [47]: 8.27%
- inhibition [15]: 4.82%
- inhibition [17]: 5.53%
- inhibition [19]: 7.66%
- inhibition [20]: 3.51%
- inhibition [21]: 83%
- inhibition [22]: 18.7%
- inhibition [23]: 4.07%
- inhibition [24]: 13.3%
- inhibition [25]: 34.2%
- inhibition [26]: 0.43%
- inhibition [27]: 3.43%
- inhibition [28]: -2.11%
- inhibition [30]: 3.73%
- inhibition [48]: -7.5%
- inhibition [49]: 50.7%
- inhibition [31]: 6.46%
- inhibition [32]: 4.21%
- inhibition [33]: 3.17%
- inhibition [34]: -8.12%
- inhibition [35]: 24.4%
- inhibition [37]: -2.15%
- inhibition [38]: -1.43%
- inhibition [50]: 2.94%
- inhibition [40]: 28.7%
- inhibition (Rattus norvegicus): 5.64%
- inhibition [41]: 0.34%
- inhibition [43]: 6.56%
